Experiments:
[1] = Leaching: 10 grams fabric in 100 milliliters distilled water, 7 days, GC-MS; format: physicochemical
Procedure: To test for a potential leaching of the antimicrobial agents fixed to the textile material, the following test was performed. A test fabric of polyester 65%/cotton 35% with 210 g/m2 was treated with polyhexamethylenebiguanide (PHMB) 0.5%, silver chloride 0.075%, octadecylaminomethyl trihydroxysilylpropyl ammonium chloride (organosilane) 0.4%, and propiconazole 0.5%
The treated textile material was put into distilled water at a ratio of 1:10. Specifically, a fabric of 10 grams was soaked in 100 milliliters of distilled water. The fabric was incubated in the water for 7 days at room temperature, i.e. between 21 and 25° C.
Following said incubation time, the fabric was removed from the water and the exposed water was tested for the presence of the above five active ingredients using gas chromatography-mass spectrometry (GC-MS).

[2] = Leaching test: 100 g fabric soaked in 10 liters stagnant distilled water, 3 days (72 hours); format: physicochemical; details: for Leaching of active ingredients: exhaust 80° C. 60 min, cured 180° C. 2 min, post wash
Procedure: The test procedure for leaching was as follows: 100 g (grams) of fabric as well as control fabrics were soaked in 10 liters of stagnant distilled water in a closed wide mouth jar. After 3 days (72 hours), the water samples were tested for leached substances as per standard analytical methods.
The test procedure for leaching was as follows: 100 g (grams) of fabric as well as control fabrics were soaked in 10 liters of stagnant distilled water in a closed wide mouth jar. After 3 days (72 hours), the water samples were tested for leached substances as per standard analytical methods. A weight of 100 g fabric was chosen because in the preferred embodiment of the water filter as described further below, each filter comprises a strip of fabric with 210 g/m^2, 3 meters long and 0.16 meters wide, which corresponds to 100 g of fabric.

In the case of `CCCCCCCCCCCCCCCCCC[N+](C)(C)CCC[Si](OC)(OC)OC` [Organosilane, dimethyloctadecyl[3-(trimethoxysilyl)propyl] ammonium chloride], the “Extracted water Conc, ppm” value [1] is reported as “BDL (BDL-below detection limit Detection limit: 1 parts per million (ppm))”, the “Leaching of active ingredients (in ppm)” value ([2]; 0.2% each in mixture (o.w.f), exhaust 80° C., 60 min, curing 180° C., 2 min, unwashed) is reported as 7 ppm and the “Leaching of active ingredients (in ppm)” value ([2]; 0.5% each in mixture (o.w.f), exhaust 80° C., 60 min, curing 180° C., 2 min, unwashed) is reported as 9 ppm. For the same compound, the “Leaching of active ingredients (in ppm)” value ([2]; 1.0% each in mixture (o.w.f), exhaust 80° C., 60 min, curing 180° C., 2 min, unwashed) was 17 ppm, the Leeching in ppm ([2]; Exhaust + Wash + pad + Wash, exhaust 0.1% o.w.f. each in mixture, 1 gm/liter pad) was 0.1 ppm and the Leeching in ppm ([2]; Exhaust + Wash + pad + Wash, exhaust 0.1% o.w.f. each in mixture, 5 gm/liter pad) was 0.2 ppm. For the same compound, the Leeching in ppm ([2]; Exhaust + Wash + pad + Wash, exhaust 0.1% o.w.f. each in mixture, 10 gm/liter pad) was 0.4 ppm, the Leeching in ppm ([2]; Exhaust + Wash + pad + Wash, exhaust 0.25% o.w.f. each in mixture, 1 gm/liter pad) was 1 ppm and the Leeching in ppm ([2]; Exhaust + Wash + pad + Wash, exhaust 0.25% o.w.f. each in mixture, 5 gm/liter pad) was 2 ppm. It also gave a Leeching in ppm ([2]; Exhaust + Wash + pad + Wash, exhaust 0.25% o.w.f. each in mixture, 10 gm/liter pad) of 5 ppm, a Leeching in ppm ([2]; Exhaust + Wash + pad + Wash, exhaust 0.5 (% o.w.f) each in mixture, 1 gm/liter pad) of 3 ppm and a Leeching in ppm ([2]; Exhaust + Wash + pad + Wash, exhaust 0.5 (% o.w.f) each in mixture, 5 gm/liter pad) of 7 ppm. For the same compound, the Leeching in ppm ([2]; Exhaust + Wash + pad + Wash, exhaust 0.5 (% o.w.f) each in mixture, 10 gm/liter pad) was 9 ppm, the Leeching in ppm ([2]; Exhaust + Wash + pad + Wash, exhaust 1.0% o.w.f. each in mixture, 1 gm/liter pad) was 9 ppm and the Leeching in ppm ([2]; Exhaust + Wash + pad + Wash, exhaust 1.0% o.w.f. each in mixture, 5 gm/liter pad) was 10 ppm. For the same compound, the Leeching in ppm ([2]; Exhaust + Wash + pad + Wash, exhaust 1.0% o.w.f. each in mixture, 10 gm/liter pad) was 15 ppm, the Leeching in ppm ([2]; Exhaust + pad + Wash, exhaust 0.1% o.w.f. each in mixture, 1 gm/liter pad) was 143 ppm and the Leeching in ppm ([2]; Exhaust + pad + Wash, exhaust 0.1% o.w.f. each in mixture, 5 gm/liter pad) was 238 ppm. For the same compound, the Leeching in ppm ([2]; Exhaust + pad + Wash, exhaust 0.1% o.w.f. each in mixture, 10 gm/liter pad) was 249 ppm, the Leeching in ppm ([2]; Exhaust + pad + Wash, exhaust 0.25% o.w.f. each in mixture, 1 gm/liter pad) was 265 ppm and the Leeching in ppm ([2]; Exhaust + pad + Wash, exhaust 0.25% o.w.f. each in mixture, 5 gm/liter pad) was 249 ppm. The Leeching in ppm ([2]; Exhaust + pad + Wash, exhaust 0.25% o.w.f. each in mixture, 10 gm/liter pad) was 523 ppm, the Leeching in ppm ([2]; Exhaust + pad + Wash, exhaust 0.5 (% o.w.f) each in mixture, 1 gm/liter pad) was 432 ppm and the Leeching in ppm ([2]; Exhaust + pad + Wash, exhaust 0.5 (% o.w.f) each in mixture, 5 gm/liter pad) was 587 ppm. The Leeching in ppm ([2]; Exhaust + pad + Wash, exhaust 0.5 (% o.w.f) each in mixture, 10 gm/liter pad) was 637 ppm, the Leeching in ppm ([2]; Exhaust + pad + Wash, exhaust 1.0% o.w.f. each in mixture, 1 gm/liter pad) was 536 ppm and the Leeching in ppm ([2]; Exhaust + pad + Wash, exhaust 1.0% o.w.f. each in mixture, 5 gm/liter pad) was 657 ppm. The Leeching in ppm ([2]; Exhaust + pad + Wash, exhaust 1.0% o.w.f. each in mixture, 10 gm/liter pad) was 856 ppm, the Leeching in ppm ([2]; Exhaust + pad, exhaust 0.1% o.w.f. each in mixture, 1 gm/liter pad) was 198 ppm and the Leeching in ppm ([2]; Exhaust + pad, exhaust 0.1% o.w.f. each in mixture, 5 gm/liter pad) was 275 ppm. The Leeching in ppm ([2]; Exhaust + pad, exhaust 0.1% o.w.f. each in mixture, 10 gm/liter pad) was 374 ppm, the Leeching in ppm ([2]; Exhaust + pad, exhaust 0.25% o.w.f. each in mixture, 1 gm/liter pad) was 315 ppm and the Leeching in ppm ([2]; Exhaust + pad, exhaust 0.25% o.w.f. each in mixture, 5 gm/liter pad) was 353 ppm. For the same compound, the Leeching in ppm ([2]; Exhaust + pad, exhaust 0.25% o.w.f. each in mixture, 10 gm/liter pad) was 356 ppm, the Leeching in ppm ([2]; Exhaust + pad, exhaust 0.5 (% o.w.f) each in mixture, 1 gm/liter pad) was 347 ppm and the Leeching in ppm ([2]; Exhaust + pad, exhaust 0.5 (% o.w.f) each in mixture, 5 gm/liter pad) was 462 ppm. The Leeching in ppm ([2]; Exhaust + pad, exhaust 0.5 (% o.w.f) each in mixture, 10 gm/liter pad) was 823 ppm, the Leeching in ppm ([2]; Exhaust + pad, exhaust 1.0% o.w.f. each in mixture, 1 gm/liter pad) was 584 ppm and the Leeching in ppm ([2]; Exhaust + pad, exhaust 1.0% o.w.f. each in mixture, 5 gm/liter pad) was 782 ppm. For the same compound, the Leeching in ppm ([2]; Exhaust + pad, exhaust 1.0% o.w.f. each in mixture, 10 gm/liter pad) was 1243 ppm, the Leeching in ppm ([2]; Exhaust +Wash + pad, exhaust 0.1% o.w.f. each in mixture, 1 gm/liter pad) was 87 ppm and the Leeching in ppm ([2]; Exhaust +Wash + pad, exhaust 0.1% o.w.f. each in mixture, 5 gm/liter pad) was 158 ppm. For the same compound, the Leeching in ppm ([2]; Exhaust +Wash + pad, exhaust 0.1% o.w.f. each in mixture, 10 gm/liter pad) was 231 ppm, the Leeching in ppm ([2]; Exhaust +Wash + pad, exhaust 0.25% o.w.f. each in mixture, 1 gm/liter pad) was 186 ppm and the Leeching in ppm ([2]; Exhaust +Wash + pad, exhaust 0.25% o.w.f. each in mixture, 5 gm/liter pad) was 214 ppm. For the same compound, the Leeching in ppm ([2]; Exhaust +Wash + pad, exhaust 0.25% o.w.f. each in mixture, 10 gm/liter pad) was 327 ppm, the Leeching in ppm ([2]; Exhaust +Wash + pad, exhaust 0.5 (% o.w.f) each in mixture, 1 gm/liter pad) was 375 ppm and the Leeching in ppm ([2]; Exhaust +Wash + pad, exhaust 0.5 (% o.w.f) each in mixture, 5 gm/liter pad) was 432 ppm. The Leeching in ppm ([2]; Exhaust +Wash + pad, exhaust 0.5 (% o.w.f) each in mixture, 10 gm/liter pad) was 564 ppm, the Leeching in ppm ([2]; Exhaust +Wash + pad, exhaust 1.0% o.w.f. each in mixture, 1 gm/liter pad) was 495 ppm and the Leeching in ppm ([2]; Exhaust +Wash + pad, exhaust 1.0% o.w.f. each in mixture, 5 gm/liter pad) was 534 ppm. For the same compound, the Leeching in ppm ([2]; Exhaust +Wash + pad, exhaust 1.0% o.w.f. each in mixture, 10 gm/liter pad) was 645 ppm, the “Leaching of active ingredients (in ppm)” value ([2]; exhaust 60° C., solution dosage 1% o.w.f, process time 60 min) was 23 ppm and the “Leaching of active ingredients (in ppm)” value ([2]; exhaust 60° C., solution dosage 1% o.w.f, process time 90 min) was 14 ppm. The “Leaching of active ingredients (in ppm)” value ([2]; exhaust 60° C., solution dosage 1% o.w.f, process time 120 min) was 14 ppm, the “Leaching of active ingredients (in ppm)” value ([2]; exhaust 60° C., solution dosage 1% o.w.f, process time 180 min) was 12 ppm and the “Leaching of active ingredients (in ppm)” value ([2]; exhaust 60° C., solution dosage 1% o.w.f, process time 240 min) was 14 ppm. For the same compound, the “Leaching of active ingredients” value ([2]; mixture 0.2% o.w.f. each) was 0.2 ppm, the “Leaching of active ingredients” value ([2]; mixture 0.5% o.w.f. each) was 0.3 ppm and the “Leaching of active ingredients” value ([2]; mixture 1% o.w.f. each) was 0.7 ppm. For the same compound, the “Leaching of active ingredients (in ppm)” value ([2]; exhaust 80° C., 1% o.w.f, 60 min, curing 170° C., curing dwell time 0.5 min) was 29 ppm, the “Leaching of active ingredients (in ppm)” value ([2]; exhaust 80° C., 1% o.w.f, 60 min, curing 170° C., curing dwell time 1.0 min) was 25 ppm and the “Leaching of active ingredients (in ppm)” value ([2]; exhaust 80° C., 1% o.w.f, 60 min, curing 170° C., curing dwell time 1.5 min) was 22 ppm. The “Leaching of active ingredients (in ppm)” value ([2]; exhaust 80° C., 1% o.w.f, 60 min, curing 170° C., curing dwell time 2.0 min) was 13 ppm, the “Leaching of active ingredients (in ppm)” value ([2]; exhaust 80° C., 1% o.w.f, 60 min, curing 170° C., curing dwell time 2.5 min) was 17 ppm and the “Leaching of active ingredients (in ppm)” value ([2]; exhaust 80° C., 1% o.w.f, 60 min, curing 170° C., curing dwell time 3.0 min) was 17 ppm. The “Leaching of active ingredients (in ppm)” value ([2]; exhaust 80° C., 1% o.w.f, 60 min, curing 180° C., curing dwell time 0.5 min) was 23 ppm, the “Leaching of active ingredients (in ppm)” value ([2]; exhaust 80° C., 1% o.w.f, 60 min, curing 180° C., curing dwell time 1.0 min) was 13 ppm and the “Leaching of active ingredients (in ppm)” value ([2]; exhaust 80° C., 1% o.w.f, 60 min, curing 180° C., curing dwell time 1.5 min) was 14 ppm. For the same compound, the “Leaching of active ingredients (in ppm)” value ([2]; exhaust 80° C., 1% o.w.f, 60 min, curing 180° C., curing dwell time 2.0 min) was 2 ppm, the “Leaching of active ingredients (in ppm)” value ([2]; exhaust 80° C., 1% o.w.f, 60 min, curing 180° C., curing dwell time 2.5 min) was 12 ppm and the “Leaching of active ingredients (in ppm)” value ([2]; exhaust 80° C., 1% o.w.f, 60 min, curing 180° C., curing dwell time 3.0 min) was 12 ppm. For the same compound, the “Leaching of active ingredients (in ppm)” value ([2]; exhaust 80° C., 1% o.w.f, 60 min, curing dwell time at 190° C. (title): 0.5 min) was 19 ppm, the “Leaching of active ingredients (in ppm)” value ([2]; exhaust 80° C., 1% o.w.f, 60 min, curing dwell time at 190° C. (title): 1.0 min) was 12 ppm and the “Leaching of active ingredients (in ppm)” value ([2]; exhaust 80° C., 1% o.w.f, 60 min, curing dwell time at 190° C. (title): 1.5 min) was 11 ppm. The “Leaching of active ingredients (in ppm)” value ([2]; exhaust 80° C., 1% o.w.f, 60 min, curing dwell time at 190° C. (title): 2.0 min) was 11 ppm and the “Leaching of active ingredients (in ppm)” value ([2]; exhaust 80° C., 1% o.w.f, 60 min, curing dwell time at 190° C. (title): 2.5 min) was 25 ppm.

From US20210254272A1, “TEXTILES HAVING ANTIMICROBIAL PROPERTIES” (Livinguard AG, priority 2015, published 2021)
